According to article PMC514652, “A single amino acid determines preference between phospholipids and reveals length restriction for activation ofthe S1P4 receptor” (BMC Biochemistry, 2004):
Substitutions are numbered along the chain they refer to.

Columns and labels:
S1P4 [1] = target: T1, S1P4 (Homo sapiens, UniProt O95977); assay: […]GTPγS binding assay, CHO-K1 membranes; format: biochemical
T1 construct: gene S1PR4
T1 sequence (O95977 1-384): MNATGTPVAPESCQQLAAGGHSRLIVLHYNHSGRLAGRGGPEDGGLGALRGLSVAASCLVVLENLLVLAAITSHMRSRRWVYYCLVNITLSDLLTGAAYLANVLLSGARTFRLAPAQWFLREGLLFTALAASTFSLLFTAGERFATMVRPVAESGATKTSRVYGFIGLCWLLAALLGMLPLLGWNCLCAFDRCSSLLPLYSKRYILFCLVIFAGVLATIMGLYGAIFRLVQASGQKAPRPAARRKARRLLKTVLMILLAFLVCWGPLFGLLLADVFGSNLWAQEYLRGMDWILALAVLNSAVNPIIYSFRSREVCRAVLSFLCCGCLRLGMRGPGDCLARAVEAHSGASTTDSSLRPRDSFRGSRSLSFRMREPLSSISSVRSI

S1P4 [2] = target: T2, S1P4 (Homo sapiens, UniProt O95977, E122Q); assay: […]GTPγS binding assay at a single […] concentration (weak agonist); format: cell-based; conditions: read-out: % stimulation over basal at 10 μM
T2 construct: gene S1PR4; HA-S1P4(E3.29(122)Q)-Gαi1(C351I) fusion in CHO-K1 membranes, pertussis toxin treated; with Gαi1(C351I) (fused)
T2 sequence (O95977 1-384 E122Q): T1 sequence (O95977 1-384) with E122Q

CCCCCCCCCCCCC/C=C/[C@@H](O)[C@@H](N)COP(=O)(O)O [S1P, Sphingosine-1-phosphate] gave an EC50 (S1P4 [1]) of 355 ± 155 nM.

For CCCCCCCCCCCCCCCC(=O)OC[C@@H](O)COP(=O)(O)O [16:0 LPA], the activation at 10 µM (S1P4 [2]) was about 19%.
